Where “and” joins values, the source holds several entries; their conditions need not be identical. Identical values can stand only once.
How the values were obtained:
[1] = system: platelets; assay: Clinical trial, metastatic pancreatic cancer: platelet count / thrombocytopenia grade; assay type: in vivo, human; parameters: Platelet count at start of cycle, Cycle 4 / Platelet count: unit: ×10^3/μl blood
Excerpt: Male and non-pregnant, non-lactating, female patients, aged 18 to 75, with histologically confirmed metastatic adenocarcinoma of the pancreas were enrolled in the trial. […] Treatment consisted of a series of 28-day cycles, wherein the last day of one cycle (e.g., day 28, cycle 1) was immediately followed by the first day of the next cycle (e.g., day 1, cycle 2). […] Nab-paclitaxel and gemcitabine therapy was given as described in the prescribing information for Abraxane® and Gemzar®. See also, Von Hoff et al., 2011, J. […] As a substantially non-anticoagulant heparinoid, ODSH can be administered at a dose that is greater than the fully anticoagulant dose of unfractionated heparin, without concern for anticoagulant effect, as shown in the Results below. An initial run-in period was conducted in which ten patients were treated with the gemcitabine, nab-paclitaxel, and ODSH regimen described above. After all ten patients had completed at least one 28-day cycle, the data were reviewed and an open-label randomized study initiated, with two arms (ODSH arm and Control arm). In the ODSH arm, the dosing regimen was the same as in the run-in period (gemcitabine, nab-paclitaxel, and ODSH). In the Control arm, patients were given the same gemcitabine and nab-paclitaxel regimen as in the run-in period, but without ODSH. […] Platelet counts, total white blood cell counts, and absolute neutrophil counts were performed. Grading of thrombocytopenia and/or neutropenia was performed according to the following standards: [table]

[2] = A2780 xenograft study: body weight; assay type: in vivo, athymic female mice; settings: Group 2: 48 mg/kg IV QD + 24 mg/kg SC BID, individual mice, listed as PGX ODSH
Method: ODSH (50 mg/mL stock concentration) was made by Pyramid Laboratories, Inc. and stored at room temperature until use. As described further below, ODSH was administered either intravenously (IV), at a dose of 48 mg/kg and volume of 10 mL/kg, or subcutaneously (SC) at a dose of 24 mg/kg and volume of 5 ml/kg. Carboplatin obtained from a clinical supplier was stored at 4° C. until use. Carboplatin was administered by intraperitoneal injection (IP) at a dose of 80 mg/kg and volume of 10 mL/kg. Saline solution (0.9% NaCl) was used as a vehicle control for ODSH and administered by the same routes and in the same volumes as ODSH.
Human ovarian cancer cell line A2780 was used in the murine xenograft experiments as follows. Approximately 5×10^6 A2780 cells were used per mouse, injected subcutaneously into the right flank in 0.1 mL of 50% Matrigel/50% media. The study was initiated when tumors reached a size of 90-130 mg. 40 mice were used, 10 per treatment regimen. The mice were normal athymic female mice, aged 6-7 weeks, housed in microisolator cages and maintained under pathogen-free conditions. Tumor and body weights were measured three times per week.
Four treatment groups were studied.

## substantially 2-O, 3-O desulfated heparin [ODSH]
[1]; open-label randomized trial, per arm, Cycle 1 Day 15
  Platelet count: 143
[1]; open-label randomized trial, per arm, Cycle 2 Day 1
  Platelet count: 336
[1]; open-label randomized trial, per arm, Cycle 2 Day 15
  Platelet count: 135
[1]; open-label randomized trial, per arm, Cycle 3 Day 1
  Platelet count: 393
[1]; open-label randomized trial, per arm, Cycle 3 Day 15
  Platelet count: 171
[1]; open-label randomized trial, per arm, Cycle 4 Day 1
  Platelet count: 404
[1]; open-label randomized trial, per arm, Cycle 4 Day 15
  Platelet count: 156
[1]; open-label randomized trial, per arm, Cycle 5 Day 1
  Platelet count: 389
[1]; open-label randomized trial, per arm, Cycle 5 Day 15
  Platelet count: 121
[1]; open-label randomized trial, per arm, Cycle 6 Day 1
  Platelet count: 371
[1]; open-label randomized trial, per arm, Cycle 6 Day 15
  Platelet count: 132
[1]; prior to entry into the clinical trial protocol, individual patients
  Platelet Count, Screen: 321 ×10^3/μl blood and 187 ×10^3/μl blood and 269 ×10^3/μl blood and 267 ×10^3/μl blood and 166 ×10^3/μl blood and 271 ×10^3/μl blood and 204 ×10^3/μl blood and 505 ×10^3/μl blood
[1]; randomized stage, individual patients, Cycle 1 Day 15
  Platelet count: 231 and 216 and 121 and 103 and 199 and 172 and 162 and 232
[1]; randomized stage, individual patients, Cycle 2 Day 15
  Platelet count: 110 and 156 and 95 and 74 and 92 and 165
[1]; randomized stage, individual patients, Cycle 3 Day 15
  Platelet count: 124 and 74 and 76 and 96
[1]; randomized stage, individual patients, Cycle 4 Day 15
  Platelet count: 31 and 138
[1]; randomized stage, gemcitabine + nab-paclitaxel with or without ODSH
  Platelet counts, ODSH arm vs Control arm: statistically significant difference
[1]; randomized trial, 5 patients in each arm, p=0.013 unpaired t-test
  Median and mean platelet counts at day 15 of the first cycle, ODSH arm vs patients not receiving ODSH: significantly higher
[1]; randomized trial, p=0.0004 after 6 cycles, unpaired t-test
  Platelet recovery by day 1 of a subsequent cycle, ODSH arm vs control arm: enhanced
[2]; Day 1 (baseline)
  Individual weights, Day 1 Weight: 22.1 g and 20.3 g and 21.0 g and 21.8 g and 21.6 g and 21.4 g and 19.8 g (2×) and 20.9 g and 19.7 g
[2]; Day 4
  Day 4 Weight change: 3.6% and 1.5% and −0.5% and −1.8% and 6.5% and 1.9% and −1.0% and 5.6% and 10.0% and −2.5%
  Individual weights, Day 4 Weight: 22.9 g and 20.6 g and 20.9 g (2×) and 21.4 g and 23.0 g (2×) and 21.8 g and 19.6 g and 19.2 g
[2]; Day 6
  Day 6 Weight change: 5.0% and 1.5% and 1.0% and −1.4% and 13.4% and 2.8% and 2.0% and 7.6% and 8.1% and −2.5%
  Individual weights, Day 6 Weight: 23.2 g and 20.6 g and 21.2 g and 21.5 g and 24.5 g and 22.0 g and 20.2 g and 21.3 g and 22.6 g and 19.2 g
[2]; Day 8
  Day 8 Weight change: 5.0% and 5.4% and 2.9% and 2.3% and 16.2% and 5.6% (2×) and 12.1% and 6.7% and 2.0%
  Individual weights, Day 8 Weight: 23.2 g and 21.4 g and 21.6 g and 22.3 g (2×) and 25.1 g and 22.6 g and 20.9 g and 22.2 g and 20.1 g
[2]; Day 11
  Day 11 Weight change: 4.5% and 10.3% and 4.8% (2×) and 4.1% and 17.6% and 8.4% and 5.6% and 14.6% and 6.1%
  Individual weights, Day 11 Weight: 23.1 g and 22.4 g and 22.0 g and 22.7 g (2×) and 25.4 g and 23.2 g and 20.9 g (2×) and 21.9 g
[2]; Day 14
  Day 14 Weight change: 10.0% and 14.3% and 8.6% and 8.7% and 23.6% and 11.2% (2×) and 11.1% and 17.2% and 9.6%
  Individual weights, Day 14 Weight: 24.3 g and 23.2 g (2×) and 22.8 g and 23.7 g and 26.7 g and 23.8 g and 22.0 g and 22.9 g and 21.9 g
[2]; Day 18
  Day 18 Weight change: 5.9% and 14.3% and 11.0% and 6.4% and 22.2% and 11.2% and 1.0% and 10.1% and 10.0% and 7.6%
  Individual weights, Day 18 Weight: 23.4 g and 23.2 g (2×) and 23.3 g and 26.4 g and 23.8 g and 20.0 g and 21.8 g and 23.0 g and 21.2 g
[2]; Day 21
  Day 21 Weight change: 7.2% and 18.2% and 10.5% and 10.1% and 22.2% and 12.6% and 3.0% and 10.6% and 9.6% and 11.2%
  Individual weights, Day 21 Weight: 23.7 g and 24.0 g (2×) and 23.2 g and 26.4 g and 24.1 g and 20.4 g and 21.9 g (2×) and 22.9 g
[2]; Day 25
  Day 25 Weight change: 19.7% and 31.0% and 9.6% and 18.2% and 14.8%
  Individual weights, Day 25 Weight: 24.3 g and 28.3 g and 21.7 g and 23.4 g and 24.0 g
[2]; Day 28
  Day 28 Weight change: 23.2% and 32.9% and 15.7% and 20.2% and 15.8%
  Individual weights, Day 28 Weight: 29.0 g and 28.7 g and 22.9 g and 23.8 g and 24.2 g

From patent publication US11229664B2, “Treatment of myelosuppression” (priority 2012, dated 2022)
